# Measured values as given in ChEMBL document CHEMBL4376834, “Discovery of 4H-Chromen-4-one Derivatives as a New Class of Selective Rho Kinase (ROCK) Inhibitors, which Showed Potent Activity in ex Vivo Diabetic Retinopathy Models” (J Med Chem, 2019).
# Experiments:
# [1] = target: Serine/threonine-protein kinase PRP4 homolog (Homo sapiens, UniProt Q13523); experiment: Inhibition of recombinant human PRP4 (663 to end residues) using casein as substrate incubated for 40 mins in presence of [gamma33P]ATP by radiometric scintillation counting analysis
# [2] = target: Serine/threonine-protein kinase 17A (Homo sapiens, UniProt Q9UEE5); experiment: Inhibition of recombinant full length human DRAK1 using KKLNRTLSFAEPG as substrate after 40 mins in presence of [gamma-33ATP] by radiometric scintillation counting analysis
# [3] = target: G protein-coupled receptor kinase 3 (Homo sapiens, UniProt P35626); experiment: Inhibition of recombinant full length human GRK3 using casein as substrate after 40 mins in presence of [gamma-33ATP] by radiometric scintillation counting analysis
# Chain of G protein-coupled receptor kinase 3 (P35626 whole entry): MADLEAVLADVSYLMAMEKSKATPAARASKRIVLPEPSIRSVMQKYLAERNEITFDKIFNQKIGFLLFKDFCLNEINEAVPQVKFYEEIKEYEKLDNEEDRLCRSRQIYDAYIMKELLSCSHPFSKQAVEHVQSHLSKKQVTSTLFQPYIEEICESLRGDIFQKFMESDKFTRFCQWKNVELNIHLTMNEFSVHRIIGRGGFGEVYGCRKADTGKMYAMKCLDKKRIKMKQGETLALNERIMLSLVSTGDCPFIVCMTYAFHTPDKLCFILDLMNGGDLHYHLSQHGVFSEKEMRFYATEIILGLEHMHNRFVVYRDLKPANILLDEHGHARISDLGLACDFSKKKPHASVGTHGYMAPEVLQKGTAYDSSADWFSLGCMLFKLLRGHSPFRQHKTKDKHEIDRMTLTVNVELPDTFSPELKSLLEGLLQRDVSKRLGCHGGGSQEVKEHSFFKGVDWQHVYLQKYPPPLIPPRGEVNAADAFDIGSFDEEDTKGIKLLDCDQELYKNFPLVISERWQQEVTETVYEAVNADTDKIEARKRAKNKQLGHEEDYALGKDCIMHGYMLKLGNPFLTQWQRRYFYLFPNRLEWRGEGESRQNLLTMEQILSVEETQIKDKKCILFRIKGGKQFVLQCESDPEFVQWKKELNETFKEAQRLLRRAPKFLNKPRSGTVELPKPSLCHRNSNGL
# [4] = target: CDK7/Cyclin H/MNAT1 (Homo sapiens, UniProt P50613); experiment: Inhibition of recombinant full length human CDK7/cyclinH/MAT1 using peptide substrate incubated for 40 mins in presence of [gamma-33ATP] by radiometric scintillation counting analysis; type: protein-complex assay
# Chain of CDK7/Cyclin H/MNAT1 (P51946 whole entry, the tested form may be a part, canonical isoform): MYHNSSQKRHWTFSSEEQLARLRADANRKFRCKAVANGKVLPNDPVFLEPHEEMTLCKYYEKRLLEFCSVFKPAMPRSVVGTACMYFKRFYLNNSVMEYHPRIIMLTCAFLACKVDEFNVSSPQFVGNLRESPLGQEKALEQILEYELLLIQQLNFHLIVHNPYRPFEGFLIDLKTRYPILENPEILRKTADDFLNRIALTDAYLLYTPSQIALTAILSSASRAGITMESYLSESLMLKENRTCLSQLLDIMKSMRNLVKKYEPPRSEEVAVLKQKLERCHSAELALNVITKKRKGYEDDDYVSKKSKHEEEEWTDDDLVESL
# Chain of CDK7/Cyclin H/MNAT1 (P50613 whole entry, the tested form may be a part, canonical isoform): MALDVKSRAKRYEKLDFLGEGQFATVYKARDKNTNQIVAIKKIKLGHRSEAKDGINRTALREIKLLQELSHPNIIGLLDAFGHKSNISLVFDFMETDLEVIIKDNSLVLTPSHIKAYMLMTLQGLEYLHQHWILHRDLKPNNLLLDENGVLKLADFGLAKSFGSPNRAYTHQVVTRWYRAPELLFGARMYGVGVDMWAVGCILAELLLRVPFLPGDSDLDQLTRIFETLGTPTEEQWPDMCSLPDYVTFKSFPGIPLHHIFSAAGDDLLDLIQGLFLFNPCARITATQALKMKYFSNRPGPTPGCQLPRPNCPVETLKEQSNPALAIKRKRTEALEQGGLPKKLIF
# Chain of CDK7/Cyclin H/MNAT1 (P51948 whole entry, further chain, the tested form may be a part, canonical isoform): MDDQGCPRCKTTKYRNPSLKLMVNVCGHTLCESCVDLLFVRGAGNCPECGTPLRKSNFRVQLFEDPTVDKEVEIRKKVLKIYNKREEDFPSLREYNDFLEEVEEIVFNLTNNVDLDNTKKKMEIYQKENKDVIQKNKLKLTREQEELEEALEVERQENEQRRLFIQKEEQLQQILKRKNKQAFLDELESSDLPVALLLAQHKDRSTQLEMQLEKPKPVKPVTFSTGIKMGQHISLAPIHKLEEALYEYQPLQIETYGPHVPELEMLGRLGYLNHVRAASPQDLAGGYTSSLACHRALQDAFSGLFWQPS
# [5] = target: Casein kinase I isoform gamma-3 (Homo sapiens, UniProt Q9Y6M4, E302D/K91E/R174G); experiment: Inhibition of recombinant human CK1gamma3 K91E/R174G/E302D triple mutant (1 to 330 residues) using KRRRALS(p)VAS as substrate incubated for 40 mins in presence of [gamma-33ATP] by radiometric scintillation counting analysis
# [6] = Inhibition of recombinant human TIE2 Q939H/Q940H/ R849W triple mutant (771 to end residues) using EFPIYDFLPAKKK as substrate incubated for 40 mins in presence of [gamma33P]ATP by radiometric scintillation counting analysis
# [7] = Inhibition of recombinant human MER H628Q/R794A double mutant (557 to 882 residues) using KKLNRTLSFAEPG as substrate incubated for 40 mins in presence of [gamma-33ATP by radiometric scintillation counting analysis
# [8] = target: BDNF/NT-3 growth factors receptor (Homo sapiens, UniProt Q16620); experiment: Inhibition of recombinant human TRKB (455 to end residues) using poly(Glu, Tyr) 4:1 as substrate incubated for 40 mins in presence of [gamma33P]ATP by radiometric scintillation counting analysis
# [9] = target: Beta-adrenergic receptor kinase 1 (Homo sapiens, UniProt P25098); experiment: Inhibition of recombinant full length human GRK2 using casein as substrate after 40 mins in presence of [gamma-33ATP] by radiometric scintillation counting analysis
# [10] = target: Insulin receptor-related protein (Homo sapiens, UniProt P14616); experiment: Inhibition of human recombinant IRR (943 to 1266 residues) using myelin basic protein as substrate after 40 mins by [gamma-33ATP] by radiometric scintillation counting analysis
# [11] = Inhibition of human recombinant full length AURORA-A I31F mutant using kemptide as substrate incubated for 40 mins in presence of [gamma-33P]ATPand 10 uM ATP by radiometric scintillation counting analysis
# [12] = target: Focal adhesion kinase 1 (Homo sapiens, UniProt Q05397); experiment: Inhibition of recombinant human FAK (411 to 686 residues) using EEEEYEEEEEEYY as substrate after 40 mins in presence of [gamma-33ATP] by radiometric scintillation counting analysis
# Chain of Focal adhesion kinase 1 (Q05397 whole entry, the tested form may be a part): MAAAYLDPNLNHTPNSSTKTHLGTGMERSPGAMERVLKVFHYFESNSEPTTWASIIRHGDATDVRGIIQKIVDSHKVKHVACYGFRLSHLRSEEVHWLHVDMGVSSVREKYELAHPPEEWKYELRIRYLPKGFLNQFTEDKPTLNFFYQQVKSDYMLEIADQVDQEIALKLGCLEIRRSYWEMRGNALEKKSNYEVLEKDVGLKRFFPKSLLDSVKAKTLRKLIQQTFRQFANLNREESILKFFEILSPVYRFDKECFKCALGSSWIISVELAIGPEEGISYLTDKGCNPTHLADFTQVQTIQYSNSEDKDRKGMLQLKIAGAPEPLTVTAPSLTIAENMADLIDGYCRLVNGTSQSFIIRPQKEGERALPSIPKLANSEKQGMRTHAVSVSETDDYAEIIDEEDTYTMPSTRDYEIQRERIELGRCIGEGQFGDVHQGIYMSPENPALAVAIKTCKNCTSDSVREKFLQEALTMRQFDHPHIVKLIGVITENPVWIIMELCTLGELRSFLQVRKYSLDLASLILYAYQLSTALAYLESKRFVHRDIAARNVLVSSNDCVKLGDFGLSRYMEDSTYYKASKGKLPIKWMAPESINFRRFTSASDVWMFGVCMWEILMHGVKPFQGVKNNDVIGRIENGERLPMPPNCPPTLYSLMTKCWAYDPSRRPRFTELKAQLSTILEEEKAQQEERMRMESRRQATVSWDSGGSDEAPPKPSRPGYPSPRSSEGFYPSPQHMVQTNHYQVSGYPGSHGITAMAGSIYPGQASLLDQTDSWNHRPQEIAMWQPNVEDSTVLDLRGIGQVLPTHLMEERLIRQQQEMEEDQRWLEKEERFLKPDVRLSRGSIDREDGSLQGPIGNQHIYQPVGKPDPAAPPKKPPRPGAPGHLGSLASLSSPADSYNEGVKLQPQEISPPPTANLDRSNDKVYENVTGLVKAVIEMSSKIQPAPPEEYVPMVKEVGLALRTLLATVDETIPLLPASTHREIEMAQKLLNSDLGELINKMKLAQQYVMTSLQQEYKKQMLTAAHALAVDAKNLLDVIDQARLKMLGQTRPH
# [13] = target: Serine/threonine-protein kinase SIK3 (Homo sapiens, UniProt Q9Y2K2); experiment: Inhibition of recombinant human SIK3 (1 to 307 residues) using KKKVSRSGLYRSP as substrate incubated for 40 mins in presence of [gamma33P]ATP by radiometric scintillation counting analysis
# [14] = target: Calcium/calmodulin-dependent protein kinase type 1D (Homo sapiens, UniProt Q8IU85); experiment: Inhibition of recombinant full length human CaMK1delta using calmodulin as substrate incubated for 40 mins in presence of [gamma-33ATP] by radiometric scintillation counting analysis
# Chain of Calcium/calmodulin-dependent protein kinase type 1D (Q8IU85 whole entry): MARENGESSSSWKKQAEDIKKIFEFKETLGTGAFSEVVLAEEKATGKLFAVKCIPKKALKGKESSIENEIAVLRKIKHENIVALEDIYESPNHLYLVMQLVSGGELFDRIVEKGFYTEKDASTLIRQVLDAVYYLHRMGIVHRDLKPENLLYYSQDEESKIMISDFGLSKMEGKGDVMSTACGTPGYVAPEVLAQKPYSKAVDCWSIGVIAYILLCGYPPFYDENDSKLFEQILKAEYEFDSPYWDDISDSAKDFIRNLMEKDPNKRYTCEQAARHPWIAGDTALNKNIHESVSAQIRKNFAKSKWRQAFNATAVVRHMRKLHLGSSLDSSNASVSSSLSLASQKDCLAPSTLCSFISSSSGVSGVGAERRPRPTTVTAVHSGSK
# [15] = Inhibition of recombinant human MAPKAPK2 A399G mutant (46 to end residues) using KKLNRTLSVA as substrate incubated for 40 mins in presence of [gamma-33ATP by radiometric scintillation counting analysis
# [16] = target: Mitogen-activated protein kinase kinase kinase kinase 3 (Homo sapiens, UniProt Q8IVH8); experiment: Inhibition of recombinant human MAP4K3 (1 to 291 residues) using RLGRDKYKTLRQI as substrate incubated for 40 mins in presence of [gamma-33ATP by radiometric scintillation counting analysis
# [17] = target: Receptor-interacting serine/threonine-protein kinase 2 (Homo sapiens, UniProt O43353); experiment: Inhibition of recombinant human RIPK2 (1 to 299 residues) using MBP as substrate incubated for 120 mins in presence of [gamma33P]ATP by radiometric scintillation counting analysis
# Chain of Receptor-interacting serine/threonine-protein kinase 2 (O43353 whole entry, the tested form may be a part): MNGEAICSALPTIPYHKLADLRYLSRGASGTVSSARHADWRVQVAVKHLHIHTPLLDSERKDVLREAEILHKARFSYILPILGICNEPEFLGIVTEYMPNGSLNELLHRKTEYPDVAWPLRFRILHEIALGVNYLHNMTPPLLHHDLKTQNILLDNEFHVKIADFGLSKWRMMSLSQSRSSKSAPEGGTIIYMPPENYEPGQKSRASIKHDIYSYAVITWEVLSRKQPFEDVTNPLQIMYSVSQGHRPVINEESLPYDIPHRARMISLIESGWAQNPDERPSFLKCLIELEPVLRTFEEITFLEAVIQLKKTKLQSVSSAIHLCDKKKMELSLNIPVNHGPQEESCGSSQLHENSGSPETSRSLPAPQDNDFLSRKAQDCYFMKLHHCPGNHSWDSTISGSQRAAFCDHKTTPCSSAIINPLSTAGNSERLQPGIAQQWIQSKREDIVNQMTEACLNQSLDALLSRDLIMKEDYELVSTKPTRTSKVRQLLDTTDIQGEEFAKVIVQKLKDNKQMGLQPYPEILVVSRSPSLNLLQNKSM
# [18] = target: Ribosomal protein S6 kinase alpha-4 (Homo sapiens, UniProt O75676); experiment: Inhibition of recombinant human MSK2 (2 to end residues) using GRPRTSSFAEGKK as substrate incubated for 40 mins in presence of [gamma-33ATP by radiometric scintillation counting analysis
# [19] = target: Serine/threonine-protein kinase TBK1 (Homo sapiens, UniProt Q9UHD2); experiment: Inhibition of recombinant full length human TBK1 using KRRRALS(p)VAS as substrate incubated for 40 mins in presence of [gamma33P]ATP by radiometric scintillation counting analysis
# Chain of Serine/threonine-protein kinase TBK1 (Q9UHD2 whole entry): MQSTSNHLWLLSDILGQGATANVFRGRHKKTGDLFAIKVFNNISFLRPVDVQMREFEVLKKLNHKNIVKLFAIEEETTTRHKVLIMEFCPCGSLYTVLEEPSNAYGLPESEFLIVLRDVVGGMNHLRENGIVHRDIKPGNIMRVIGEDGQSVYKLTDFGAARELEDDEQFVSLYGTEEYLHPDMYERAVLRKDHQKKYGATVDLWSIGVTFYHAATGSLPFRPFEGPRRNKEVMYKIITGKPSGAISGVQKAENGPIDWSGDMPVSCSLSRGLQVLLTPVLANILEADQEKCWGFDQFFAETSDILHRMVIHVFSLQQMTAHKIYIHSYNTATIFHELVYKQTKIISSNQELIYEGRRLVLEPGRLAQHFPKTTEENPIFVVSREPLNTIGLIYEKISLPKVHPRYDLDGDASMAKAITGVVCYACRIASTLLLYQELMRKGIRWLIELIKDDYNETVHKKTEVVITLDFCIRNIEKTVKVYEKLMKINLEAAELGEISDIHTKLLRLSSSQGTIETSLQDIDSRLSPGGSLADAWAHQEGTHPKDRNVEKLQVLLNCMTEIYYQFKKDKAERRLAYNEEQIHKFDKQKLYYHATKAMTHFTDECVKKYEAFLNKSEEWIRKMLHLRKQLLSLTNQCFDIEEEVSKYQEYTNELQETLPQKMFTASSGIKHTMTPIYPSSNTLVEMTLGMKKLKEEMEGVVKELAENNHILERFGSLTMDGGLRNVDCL
# [20] = n-Octanol-water partition coefficient, logD of compound at 1 mg measured after 48 hrs under shaking condition by LC-MS analysis; type: physicochemical
# [21] = target: Tyrosine-protein kinase ITK/TSK (Homo sapiens, UniProt Q08881); experiment: Inhibition of human recombinant Itk (352 to 617 residues) using myelin basic protein as substrate after 40 mins by [gamma-33ATP] by radiometric scintillation counting analysis
# Chain of Tyrosine-protein kinase ITK/TSK (Q08881 whole entry, the tested form may be a part): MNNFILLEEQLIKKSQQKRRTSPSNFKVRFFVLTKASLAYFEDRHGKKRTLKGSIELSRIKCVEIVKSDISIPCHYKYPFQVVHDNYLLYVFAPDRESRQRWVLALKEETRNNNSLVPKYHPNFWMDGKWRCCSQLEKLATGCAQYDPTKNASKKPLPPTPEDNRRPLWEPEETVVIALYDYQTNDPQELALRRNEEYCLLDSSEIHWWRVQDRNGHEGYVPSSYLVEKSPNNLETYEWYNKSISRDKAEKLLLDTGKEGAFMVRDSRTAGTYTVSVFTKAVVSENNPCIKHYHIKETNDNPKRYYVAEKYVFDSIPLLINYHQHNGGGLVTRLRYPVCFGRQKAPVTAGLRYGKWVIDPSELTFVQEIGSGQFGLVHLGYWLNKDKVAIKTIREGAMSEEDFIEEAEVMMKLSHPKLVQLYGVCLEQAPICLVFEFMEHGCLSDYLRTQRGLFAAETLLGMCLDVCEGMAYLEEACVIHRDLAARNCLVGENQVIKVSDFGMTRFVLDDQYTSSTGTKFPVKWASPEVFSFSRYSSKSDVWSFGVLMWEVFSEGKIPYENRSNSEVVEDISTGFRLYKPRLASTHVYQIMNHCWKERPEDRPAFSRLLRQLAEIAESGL
# [22] = target: MAP/microtubule affinity-regulating kinase 4 (Homo sapiens, UniProt Q96L34); experiment: Inhibition of recombinant full length human MARK4 using KKKVSRSGLYRSP as substrate incubated for 40 mins in presence of [gamma-33ATP by radiometric scintillation counting analysis
# [23] = target: SRSF protein kinase 3 (Homo sapiens, UniProt Q9UPE1); experiment: Inhibition of recombinant full-length human MSSK1 using ERMRPRKRQGSVRRRV as substrate measured after 40 mins in presence of [gamma33P]ATP by radiometric scintillation counting analysis
# [24] = target: Casein kinase II subunit alpha (Homo sapiens, UniProt P68400); experiment: Inhibition of recombinant full length human CK2alpha1 using RRRDDDSDDD as substrate incubated 40 mins in presence of [gamma-33ATP] by radiometric scintillation counting analysis
# [25] = target: Eukaryotic translation initiation factor 2-alpha kinase 1 (Homo sapiens, UniProt Q9BQI3); experiment: Inhibition of human recombinant HRI (140 to end residues) using RSRSRSRSRSRSR as substrate after 120 mins by [gamma-33ATP] radiometric assay
# [26] = target: Wee1-like protein kinase (Homo sapiens, UniProt P30291); experiment: Inhibition of recombinant human WEE1 (214 to end residues) using LSNLYHQGKFLQT as substrate incubated for 40 mins in presence of [gamma33P]ATP by radiometric scintillation counting analysis
smiles,measurement,setting,value
CN(C)c1ccc(C(=O)Nc2cccc(NC(=O)COc3ccc4c(=O)ccoc4c3)c2)cc1,IC50,[1],> 10 µM
same,IC50,[2],> 10 µM
same,IC50,[3],> 10 µM
same,IC50,[4],> 10 µM
same,IC50,[5],> 10 µM
same,IC50,[6],> 10 µM
same,IC50,[7],> 10 µM
same,IC50,[8],> 10 µM
same,IC50,[9],> 10 µM
same,IC50,[10],> 10 µM
same,IC50,[11],1.07 µM
same,IC50,[12],> 10 µM
same,IC50,[13],> 10 µM
same,IC50,[14],> 10 µM
same,IC50,[15],> 10 µM
same,IC50,[16],> 10 µM
same,IC50,[17],> 10 µM
same,IC50,[18],> 10 µM
same,IC50,[19],> 10 µM
same,logD at 48 h,[20],2.65
same,IC50,[21],> 10 µM
same,IC50,[22],> 10 µM
same,IC50,[23],> 10 µM
same,IC50,[24],> 10 µM
same,IC50,[25],> 10 µM
same,IC50,[26],> 10 µM
